# “Also recorded” adds a separate entry of the source.
# Test system: TNFα of HEPM cells stimulated by IL-1β
# Assay: Cytokine concentration in IL-1β-stimulated cell culture after light plus photosensitizing dye
# Format: cell-based, human
# Settings: Fast Green at 1000 ppm combined with light at 625 nm for 2 minutes (9 mW/cm^2, 1.1 J/cm^2)
# Description: Cells used in this example include human embryonic palatal mesenchymal (HEFM) cells and oral keratinocytes OBA9 cells. The embodiments also can be used with other cells such as human gingival fibroblasts (HGF). Cells were seeded in 24-well plates and cultured until reaching a confluence above 80%. The confluent-stage cells were treated with stimulants such as IL-1β followed by light irradiation alone, or light irradiation combined with GRAS photosensitizing dye. The cells were either pre-incubated in photosensitizing dye before light exposure, or administered at the same time of light exposure. The cells were incubated in photosensitizing dyes for varied amounts of time, the concentration of photosensitizing dyes were varied, and the cell were irradiated with light for varied amounts of time per exposure, as well as irradiation either one time or multiple times, as described below. After irradiation, the cells were incubated at 37° C. The cell culture media was collected after a certain amount of time for cytokine analysis. The results tabulated below reveal that visible light (various wavelength, 380-700 nm) alone and photosensitizing dye irradiated with visible light (various wavelength, 380-700 nm) have anti-inflammation effect. […]
smiles,measurement,value
"CCN(Cc1cccc(S(=O)(=O)[O-])c1)c1ccc(C(=C2C=CC(=[N+](CC)Cc3cccc(S(=O)(=O)[O-])c3)C=C2)c2ccc(O)cc2S(=O)(=O)[O-])cc1.[Na+].[Na+] [Fast Green, Fast Green FCF (FD&C Green No. 3)]",Effect on TNFα concentration in the in vitro cell culture,can decrease pro-inflammation cytokine TNFα concentration; also recorded: can reduce concentration of TNFα
